Results published in patent publication US20200405696A1, “INHIBITORS OF INDOLEAMINE 2,3-DIOXYGENASE AND/OR TRYPTOPHAN 2,3-DIOXYGENASE” (IDORSIA PHARMACEUTICALS LTD, priority 2018, published 2020).

Columns and labels:
[1] = biological target: T1, Recombinant full-length human IDO1 (Homo sapiens, UniProt P14902); assay: IDO1 enzymatic assay (NFK quantified by LCMS); format: biochemical; details: 2 nM enzyme, 5 μM L-tryptophan, pH6.5, 30 minutes pre-incubation at RT; mean values when measured multiple times; read-out: hIDO activity (IC50 in nM)
T1 construct: Recombinant full-length human IDO1 with a N-terminal hexahistidine tag; hexahistidine (His6) (N); made in house; host or cells: E. coli
Protocol: 1) Testing Compounds for IDO Inhibitory Activity in an IDO1 Enzymatic Assay:
Recombinant full-length human IDO1 with a N-terminal hexahistidine tag expressed in E. coli and purified to homogeneity is incubated at a final concentration of 2 nM in assay buffer consisting of 37.5 mM phosphate buffer at pH6.5 supplemented with 10 mM ascorbic acid, 0.45 μM methylene blue, 50U/ml catalase, 0.01% BSA, and 0.01% Tween 20 (protocol modified from Seegers et al, JBS 2014). Example compounds are serially diluted in DMSO, further diluted in phosphate buffer, and added to the enzyme at final concentrations ranging from 10 μM to 0.5 nM. The final DMSO concentration is 0.6%. Following a pre-incubation of 30 minutes at RT, the reaction is started by the addition of L-tryptophan at a final concentration of 5 μM in assay buffer. After 30 minutes of incubation at RT, 3 μL of the 20 μl reaction mixture are transferred to a 384 deep well plate containing 25 μL of deionized water. 100 μl of 200 nM L-Tryptophan-(indole-d5) in cold 100% methanol are added followed by a 10 minutes centrifugation at 3220×g at 4° C. An additional 75 μL of deionized water are then added followed by a 10 minutes centrifugation at 3220×g at 4° C. The product of the reaction N′-Formylkynurenine (NFK) is quantified by LCMS and normalized to the L-Tryptophan-(indole-d5) signal. Samples with 0.6% DMSO (0% effect) and a TDO/IDO inhibitor (100% effect) are used as control samples to set the parameters for the non-linear regression necessary for the determination of the half-maximal inhibitory concentration (IC50) for each compound. For each compound concentration the percentage of activity compared to 0% and 100% effect is calculated as average±STDEV (each concentration measured in duplicate). IC50 values and curves are generated with XLfit software (IDBS) using Dose-Response One Site model 203 (four parameter logistic curve model). The calculated IC50 values may fluctuate depending on the daily assay performance. Fluctuations of this kind are known to those skilled in the art. When compounds are measured multiple times, mean values are given.

[2] = biological target: T2, Recombinant human TDO comprising amino acids 19-407 (Homo sapiens, UniProt P48775); assay: TDO2 enzymatic assay (NFK quantified by LCMS); format: biochemical; details: 15 nM enzyme, 200 μM L-tryptophan, pH7, 30 minutes pre-incubation at RT; mean values when measured multiple times; read-out: hTDO activity (IC50 in nM)
T2 construct: Recombinant human TDO comprising amino acids 19-407 with a N-terminal hexahistidine tag; hexahistidine (His6) (N); made in house; host or cells: E. coli
Protocol: 2) Testing Compounds for TDO Inhibitory Activity in a TDO2 Enzymatic Assay:
Recombinant human TDO comprising amino acids 19-407 with a N-terminal hexahistidine tag expressed in E. coli and purified to homogeneity is incubated at a final concentration of 15 nM in assay buffer consisting of 75 mM phosphate buffer at pH7 supplemented with 100 μM ascorbic acid, 50U/ml Catalase, 0.01% BSA, and 0.01% Tween 20 (protocol modified from Seegers et al, JBS 2014). Example compounds are serially diluted in DMSO, further diluted in phosphate buffer, and added to the reaction mixture at final concentrations ranging from 10 μM to 0.5 nM. The final DMSO concentration is 0.6%. Following a pre-incubation of 30 minutes at RT, the reaction is started by the addition of L-tryptophan at a final concentration of 200 μM in assay buffer. After 30 minutes of incubation at RT, 3 μL of the reaction mixture are transferred to a 384 deep well plate containing 25 μL of deionized water. 100 μl of 200 nM L-Tryptophan-(indole-d5) in cold 100% methanol are added followed by a 10 minutes centrifugation at 3220×g at 4° C. An additional 75 μL of deionized water are then added followed by a 10 minutes centrifugation at 3220×g at 4° C. The product of the reaction N′-Formylkynurenine (NFK) is quantified by LCMS and normalized to the L-Tryptophan-(indole-d5) signal. Samples with 0.6% DMSO (0% effect) and a TDO/IDO inhibitor (100% effect) are used as control samples to set the parameters for the non-linear regression necessary for the determination of the half-maximal inhibitory concentration (IC50) for each compound. For each compound concentration the percentage of activity compared to 0% and 100% effect is calculated as average±STDEV (each concentration measured in duplicate). IC50 values and curves are generated with XLfit software (IDBS) using Dose-Response One Site model 203 (four parameter logistic curve model). The calculated IC50 values may fluctuate depending on the daily assay performance. Fluctuations of this kind are known to those skilled in the art. When compounds are measured multiple times, mean values are given.

T2 sequence (P48775 19-406 limits assumed): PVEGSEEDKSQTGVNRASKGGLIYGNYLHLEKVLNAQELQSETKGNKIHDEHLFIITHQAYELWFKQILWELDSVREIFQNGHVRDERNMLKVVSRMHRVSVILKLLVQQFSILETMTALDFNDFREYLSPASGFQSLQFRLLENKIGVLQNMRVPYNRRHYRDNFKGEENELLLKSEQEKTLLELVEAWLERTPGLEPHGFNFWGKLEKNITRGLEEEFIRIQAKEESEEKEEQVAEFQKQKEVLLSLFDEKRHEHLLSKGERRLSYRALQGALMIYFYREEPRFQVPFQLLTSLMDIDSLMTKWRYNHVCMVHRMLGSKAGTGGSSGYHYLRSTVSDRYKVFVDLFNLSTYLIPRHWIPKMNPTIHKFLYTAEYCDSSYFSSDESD
T1 sequence (P14902 whole entry): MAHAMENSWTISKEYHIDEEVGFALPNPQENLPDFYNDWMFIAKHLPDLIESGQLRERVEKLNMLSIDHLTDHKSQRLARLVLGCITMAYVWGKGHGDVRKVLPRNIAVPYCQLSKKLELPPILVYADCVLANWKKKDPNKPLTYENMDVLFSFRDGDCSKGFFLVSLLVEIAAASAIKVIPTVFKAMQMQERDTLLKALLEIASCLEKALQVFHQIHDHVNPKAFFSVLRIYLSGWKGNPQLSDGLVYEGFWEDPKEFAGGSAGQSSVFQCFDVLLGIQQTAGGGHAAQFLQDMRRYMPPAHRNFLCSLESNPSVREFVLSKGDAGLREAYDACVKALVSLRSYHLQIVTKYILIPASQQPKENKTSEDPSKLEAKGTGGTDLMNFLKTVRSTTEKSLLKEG

Cn1cc(-n2cc(C(O)c3c(C4CC4)sc4cncn34)nn2)cn1 (racemic) [Example 43, rac-(2-Cyclopropyl-imidazo[5,1-b]thiazol-3-yl)-[1-(1-methyl-1H-pyrazol-4-yl)-1H-[1,2,3]triazol-4-yl]-methanol] showed an IC50 [1] of 95 nM and an IC50 [2] of over 10200 nM.
COc1ccc(-n2cc(C(O)c3c(C4(C)CC4)sc4cncn34)nn2)cc1 (racemic) [Example 44, rac-[1-(4-Methoxy-phenyl)-1H-[1,2,3]triazol-4-yl]-[2-(1-methyl-cyclopropyl)-imidazo[5,1-b]thiazol-3-yl]-methanol] was tested, and the IC50 [1] was 38.8 nM and the IC50 [2] was over 10200 nM.
Work on OC(c1cn(-c2ccc(OCc3ccccc3)cc2)nn1)c1c(C2CC2)sc2cncn12 (racemic) [Example 45, rac-[1-(4-Benzyloxy-phenyl)-1H-[1,2,3]triazol-4-yl]-(2-cyclopropyl-imidazo[5,1-b]thiazol-3-yl)-methanol] yielded an IC50 [1] of 46.4 nM and an IC50 [2] of over 10200 nM.
In the case of CCOc1ccc(-n2cc(C(O)c3c(CC)sc4cncn34)nn2)cn1 (racemic) [Example 46, rac-[1-(6-Ethoxy-pyridin-3-yl)-1H-[1,2,3]triazol-4-yl]-(2-ethyl-imidazo[5,1-b]thiazol-3-yl)-methanol], the IC50 [1] is reported as 14.3 nM and the IC50 [2] is reported as over 10200 nM.
CCc1sc2cncn2c1C(O)c1cn(-c2ccc(N3CCOCC3)cc2)nn1 (racemic) [Example 47, rac-(2-Ethyl-imidazo[5,1-b]thiazol-3-yl)-[1-(4-morpholin-4-yl-phenyl)-1H-[1,2,3]triazol-4-yl]-methanol] was tested, and the IC50 [1] was 44.4 nM and the IC50 [2] was over 10200 nM.
CCc1sc2cncn2c1C(O)c1cn(-c2ccc(C3(CO)CC3)cc2)nn1 (racemic) [Example 48, rac-(2-Ethyl-imidazo[5,1-b]thiazol-3-yl)-{1-[4-(1-hydroxymethyl-cyclopropyl)-phenyl]-1H-[1,2,3]triazol-4-yl}-methanol] was tested, and the IC50 [1] was 60.6 nM and the IC50 [2] was over 10200 nM.
For CCc1sc2cncn2c1C(O)c1cn(-c2ccc(NC(=O)OC)cc2)nn1 (racemic) [Example 49, rac-(4-{4-[(2-Ethyl-imidazo[5,1-b]thiazol-3-yl)-hydroxy-methyl]-[1,2,3]triazol-1-yl}-phenyl)-carbamic Acid Methyl Ester], the IC50 [1] was 10.9 nM and the IC50 [2] was 2110 nM.
CCc1sc2cncn2c1C(O)c1cn(-c2ccc3[nH]ccc3c2)nn1 (racemic) [Example 50, rac-(2-Ethyl-imidazo[5,1-b]thiazol-3-yl)-[1-(1H-indol-5-yl)-1H-[1,2,3]triazol-4-yl]-methanol] was tested, and the IC50 [1] was 9.63 nM and the IC50 [2] was 1970 nM.
CCc1sc2cncn2c1C(O)c1cn(-c2cccc(C#N)c2)nn1 (racemic) [Example 51, rac-3-{4-[(2-Ethyl-imidazo[5,1-b]thiazol-3-yl)-hydroxy-methyl]-[1,2,3]triazol-1-yl}-benzonitrile] was tested, and the IC50 [1] was 37.1 nM and the IC50 [2] was over 10200 nM.
CCc1sc2cncn2c1C(O)c1cn(-c2cncc3ccccc23)nn1 (racemic) [Example 52, rac-(2-Ethyl-imidazo[5,1-b]thiazol-3-yl)-(1-isoquinolin-4-yl-1H-[1,2,3]triazol-4-yl)-methanol] was tested, and the IC50 [1] was 41.8 nM and the IC50 [2] was 5060 nM.
For CCc1sc2cncn2c1C(O)c1cn(Cc2ccccc2)nn1 (racemic) [Example 53, rac-(1-Benzyl-1H-[1,2,3]triazol-4-yl)-(2-ethyl-imidazo[5,1-b]thiazol-3-yl)-methanol], the IC50 [1] was 73.6 nM and the IC50 [2] was over 10200 nM.
Work on CCc1sc2cncn2c1C(O)c1cn(-c2ccc(OCC3CC3)cc2)nn1 (racemic) [Example 54, rac-[1-(4-Cyclopropylmethoxy-phenyl)-1H-[1,2,3]triazol-4-yl]-(2-ethyl-imidazo[5,1-b]thiazol-3-yl)-methanol] yielded an IC50 [1] of 12.3 nM and an IC50 [2] of over 10200 nM.
CCOc1ccc(-n2cc(C(O)c3c(C)sc4cncn34)nn2)cn1 (racemic) [Example 55, rac-[1-(6-Ethoxy-pyridin-3-yl)-1H-[1,2,3]triazol-4-yl]-(2-methyl-imidazo[5,1-b]thiazol-3-yl)-methanol] was tested, and the IC50 [1] was 205 nM and the IC50 [2] was over 10200 nM.
Compound Cc1sc2cncn2c1C(O)c1cn(-c2ccc(N3CCOCC3)cc2)nn1 (racemic) [Example 56, rac-(2-Methyl-imidazo[5,1-b]thiazol-3-yl)-[1-(4-morpholin-4-yl-phenyl)-1H-[1,2,3]triazol-4-yl]-methanol] has an IC50 [1] of 422 nM and an IC50 [2] of over 10200 nM.
In the case of Cc1sc2cncn2c1C(O)c1cn(-c2ccc(C3(CO)CC3)cc2)nn1 (racemic) [Example 57, rac-{1-[4-(1-Hydroxymethyl-cyclopropyl)-phenyl]-1H-[1,2,3]triazol-4-yl}-(2-methyl-imidazo[5,1-b]thiazol-3-yl)-methanol], the IC50 [1] is reported as 391 nM and the IC50 [2] is reported as over 10200 nM.
In the case of COC(=O)Nc1ccc(-n2cc(C(O)c3c(C)sc4cncn34)nn2)cc1 (racemic) [Example 58, rac-(4-{4-[Hydroxy-(2-methyl-imidazo[5,1-b]thiazol-3-yl)-methyl]-[1,2,3]triazol-1-yl}-phenyl)-carbamic Acid Methyl Ester], the IC50 [1] is reported as 69.1 nM and the IC50 [2] is reported as 8050 nM.
Compound Cc1sc2cncn2c1C(O)c1cn(-c2ccc3[nH]ccc3c2)nn1 (racemic) [Example 59, rac-[1-(1H-Indol-5-yl)-1H-[1,2,3]triazol-4-yl]-(2-methyl-imidazo[5,1-b]thiazol-3-yl)-methanol] has an IC50 [1] of 50.4 nM and an IC50 [2] of 8400 nM.
For Cc1sc2cncn2c1C(O)c1cn(-c2cccc(C#N)c2)nn1 (racemic) [Example 60, rac-3-{4-[Hydroxy-(2-methyl-imidazo[5,1-b]thiazol-3-yl)-methyl]-[1,2,3]triazol-1-yl}-benzonitrile], the IC50 [1] was 294 nM and the IC50 [2] was over 10200 nM.
Work on Cc1sc2cncn2c1C(O)c1cn(-c2cncc3ccccc23)nn1 (racemic) [Example 61, rac-(1-Isoquinolin-4-yl-1H-[1,2,3]triazol-4-yl)-(2-methyl-imidazo[5,1-b]thiazol-3-yl)-methanol] yielded an IC50 [1] of 493 nM and an IC50 [2] of over 10200 nM.
With Cc1sc2cncn2c1C(O)c1cn(Cc2ccccc2)nn1 (racemic) [Example 62, rac-(1-Benzyl-1H-[1,2,3]triazol-4-yl)-(2-methyl-imidazo[5,1-b]thiazol-3-yl)-methanol] the IC50 [1] was 795 nM and the IC50 [2] was over 10200 nM.
Cc1sc2cncn2c1C(O)c1cn(-c2ccc(OCC3CC3)cc2)nn1 (racemic) [Example 63, rac-[1-(4-Cyclopropylmethoxy-phenyl)-1H-[1,2,3]triazol-4-yl]-(2-methyl-imidazo[5,1-b]thiazol-3-yl)-methanol] gave an IC50 [1] of 27.7 nM and an IC50 [2] of over 10200 nM.
In the case of COc1ccc(-n2cc(C(O)c3c(-c4cccc(F)c4)sc4cncn34)nn2)cc1 (racemic) [Example 64, rac-[2-(3-Fluoro-phenyl)-imidazo[5,1-b]thiazol-3-yl]-[1-(4-methoxy-phenyl)-1H-[1,2,3]triazol-4-yl]-methanol], the IC50 [1] is reported as 177 nM and the IC50 [2] is reported as over 10200 nM.
